How the values were obtained:
[1] = system: Botryotinia fuckeliana (Botrytis cinerea); assay: Botryotinia fuckeliana (Botrytis cinerea) / liquid culture (Gray mould); assay type: cell-based; conditions: growth inhibition photometrically 3-4 days after application, vs untreated control
[2] = system: Glomerella lagenarium (Colletotrichum lagenarium); assay: Glomerella lagenarium (Colletotrichum lagenarium) / liquid culture (Anthracnose); assay type: cell-based; conditions: Colletotrichum orbiculare, growth inhibition photometrically 3-4 days after application, vs untreated control
Fusarium culmorum [3] = assay: microbe, parasite or virus in culture; assay type: cell-based; conditions: read-out: control of Fusarium culmorum
[4] = system: Monographella nivalis (Microdochium nivale); assay: Monographella nivalis (Microdochium nivale) / liquid culture (foot rot cereals); assay type: cell-based; conditions: growth inhibition photometrically 4-5 days after application, vs untreated control
[5] = system: Magnaporthe grisea (Pyricularia oryzae); assay: microbe, parasite or virus in culture; assay type: cell-based; conditions: read-out: control of Magnaporthe grisea
Fusarium culmorum [6] = assay: whole plant or invertebrate; assay type: in vivo; conditions: in Triticum aestivum, 144 h, read-out: control of Fusarium culmorum

Structure (SMILES) | inhibition of growth at 20 ppm [1] [%] | inhibition of growth at 20 ppm [2] [%] | inhibition of growth at 20 ppm (Fusarium culmorum [3]) [%] | inhibition of growth at 20 ppm [4] [%] | melting point [°C] | inhibition of growth at 20 ppm [5] [%] | pest or weed control at 200 ppm (Fusarium culmorum [6]) [%]
Cc1nn(CC(C)(CC(C)C)NC(=O)c2cnc3c(F)cccc3c2)c(C)c1Cl (stereo not shown) [E19] | ≥ 80 | ≥ 80 | ≥ 80 | ≥ 80 | 134 to 138 |  | 
Cc1nn(CC(C)(CC(C)C)NC(=O)c2cnc3c(F)cccc3c2)c(C)c1C (stereo not shown) [E20] | ≥ 80 | ≥ 80 | ≥ 80 | ≥ 80 | 140 to 144 |  | 
Cc1cc(C)n(CC(C)(CC(C)C)NC(=O)c2cnc3c(F)cccc3c2)n1 (stereo not shown) [E21] | ≥ 80 | ≥ 80 | ≥ 80 | ≥ 80 |  | ≥ 80 | 
CC1=NN(CC(C)(CC(C)C)NC(=O)c2cnc3c(F)cccc3c2)CCC1 (stereo not shown) [E23] | ≥ 80 | ≥ 80 | ≥ 80 | ≥ 80 |  |  | 
CC(C)CC(C)(CN1CCCC=N1)NC(=O)c1cnc2c(F)cccc2c1 (stereo not shown) [E24] | ≥ 80 | ≥ 80 |  | ≥ 80 |  |  | ≥ 80
CC(CC1CCOCC1)(CC(F)(F)F)NC(=O)c1cnc2c(F)cccc2c1 (stereo not shown) [E25] | ≥ 80 | ≥ 80 | ≥ 80 |  | 150 to 151 |  | 
CON1CCC(CC(C)(CC(F)(F)F)NC(=O)c2cnc3ccccc3c2)CC1 (stereo not shown) [E26] | ≥ 80 | ≥ 80 | ≥ 80 |  |  | ≥ 80 | ≥ 80
CON1CCC(CC(C)(CC(F)(F)F)NC(=O)c2cnc3c(C)cccc3c2)CC1 (stereo not shown) [E27] | ≥ 80 | ≥ 80 | ≥ 80 |  |  | ≥ 80 | 
CON1CCC(CC(C)(CC(F)(F)F)NC(=O)c2cnc3c(F)cccc3c2)CC1 (stereo not shown) [E28] | ≥ 80 | ≥ 80 | ≥ 80 |  | 76 to 86 |  | 
CC(Cc1ccc(F)nc1)(CC(F)(F)F)NC(=O)c1cnc2c(F)cccc2c1 (stereo not shown) [E29] | ≥ 80 | ≥ 80 | ≥ 80 |  | 70 to 74 |  | 
CC(Cc1ccnc(F)c1)(CC(F)(F)F)NC(=O)c1cnc2c(F)cccc2c1 (stereo not shown) [E30] | ≥ 80 |  | ≥ 80 |  | 136 to 142 | ≥ 80 | ≥ 80
CC(CC1CCOCC1)(CC(F)(F)F)NC(=O)c1cnc2ccccc2c1 (stereo not shown) [E31] | ≥ 80 |  |  |  |  |  | 
Cc1cccc2cc(C(=O)NC(C)(CC3CCOCC3)CC(F)(F)F)cnc12 (stereo not shown) [E32] | ≥ 80 | ≥ 80 | ≥ 80 |  |  | ≥ 80 | 
Cc1cccc2cc(C(=O)NC(C)(Cc3cccc(F)n3)CC(F)(F)F)cnc12 (stereo not shown) [E33] | ≥ 80 | ≥ 80 | ≥ 80 | ≥ 80 |  | ≥ 80 | ≥ 80
CC(Cc1cccc(F)n1)(CC(F)(F)F)NC(=O)c1cnc2c(F)cccc2c1 (stereo not shown) [E34] | ≥ 80 | ≥ 80 | ≥ 80 |  |  | ≥ 80 | ≥ 80
CC(Cc1cccc(F)n1)(CC(F)(F)F)NC(=O)c1cnc2ccccc2c1 (stereo not shown) [E35] | ≥ 80 | ≥ 80 | ≥ 80 |  | 109 to 111 |  | ≥ 80
CC(CC1CCCOC1)(CC(F)(F)F)NC(=O)c1cnc2ccccc2c1 (stereo not shown) [E36] | ≥ 80 | ≥ 80 | ≥ 80 |  | 81 to 84 |  | 
Cc1cccc2cc(C(=O)NC(C)(CC3CCCOC3)CC(F)(F)F)cnc12 (stereo not shown) [E37] | ≥ 80 | ≥ 80 | ≥ 80 | ≥ 80 |  | ≥ 80 | 
CC(CC1CCCOC1)(CC(F)(F)F)NC(=O)c1cnc2c(F)cccc2c1 (stereo not shown) [E38] | ≥ 80 | ≥ 80 | ≥ 80 | ≥ 80 | 85 to 88 | ≥ 80 | 
